Our source for the AC50 values is PubChem BioAssay AID977614 (Broad Institute, 2014).

What is called AC50 is the concentration at which the activity in the assay is half-maximal.

Structures are written as SMILES. Activity calls are given as the source filed them.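 Rule for the calls: active = parasite count per well reduced by over 3 SD from the mean, with host cell number above 80% of untreated; inactive = the rest.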

In the test the test system is L. donovani amastigotes in THP-1 macrophages, DAPI imaging, 72 h. Nature of the test: antileishmanial activity in infected macrophages – imaging, THP-1 host macrophages, single concentration (AID 977614).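 Note: signal is the parasite per host cell ratio from DAPI stained kinetoplasts and nuclei.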
As to `C[C@H](CO)N1C[C@H](C)[C@H](CN(C)C(=O)Nc2cccc(C(F)(F)F)c2)OCc2cn(nn2)CCCC1=O`, the AC50 was > 10 µM (inactive). `O=C(Nc1ccc(F)cc1)N1C[C@H]2[C@@H](c3ccccc31)[C@@H](CO)N2Cc1ccccc1Cl`: the AC50 is > 10 µM (inactive). In the case of `C[C@H](CO)N1C[C@H](C)[C@H](CN(C)Cc2ccccc2C(=O)O)OCc2cnnn2CCCC1=O`, the AC50 was > 10 µM (inactive). Take `C/C=C/c1ccc([C@@H]2[C@H](CO)N(C(C)=O)[C@H]2CNC(=O)c2ccccc2)cc1`: the AC50 is > 10 µM (inactive).

As to `C[C@@H]1CN([C@H](C)CO)C(=O)CCCn2nncc2CO[C@H]1CN(C)Cc1ccc(C(=O)Nc2ccccc2N)cc1`, the AC50 is > 10 µM (inactive). With `COc1ccccc1CN1[C@@H](CO)[C@@H]2c3ccccc3N(C(=O)c3cccnc3)C[C@@H]21` the figure was > 10 µM (inactive). The figure for `C[C@H]1CN([C@@H](C)CO)C(=O)CCCn2nncc2CO[C@H]1CN(C)S(=O)(=O)c1ccccc1C#N` is > 10 µM (inactive); for `CN1C[C@@H]2[C@H](c3ccccc31)[C@H](CO)N2S(=O)(=O)c1ccccc1` it is > 10 µM (inactive). In the case of `CN1C[C@@H]2[C@H](c3ccccc31)[C@@H](CO)N2S(=O)(=O)c1ccccc1`, the AC50 was > 10 µM (inactive). For the compound `COc1ccccc1C(=O)N1C[C@H]2[C@@H](c3ccccc31)[C@@H](CO)N2C(=O)Cc1ccccc1`, the AC50 was > 10 µM (inactive). The figure for `CCCNC(=O)N1C[C@@H]2[C@H](c3ccccc31)[C@H](CO)N2C(=O)CN1CCOCC1` is > 10 µM (inactive); for `C/C=C/c1ccc([C@@H]2[C@@H](CNC(=O)C3CCC3)N(C(=O)NCCC)[C@H]2CO)cc1` it is > 10 µM (inactive). The figure for `CCS(=O)(=O)N(C)C[C@H]1[C@@H](c2ccccc2)[C@@H](CO)N1C(=O)CN(C)C` is > 10 µM (inactive); for `COc1ccc(C(=O)N2C[C@@H]3[C@H](c4ccccc42)[C@H](CO)N3Cc2ccccc2Cl)cc1` it is > 10 µM (inactive); for `COc1ccccc1S(=O)(=O)N(C)C[C@@H]1OCc2cn(nn2)CCCC(=O)N([C@@H](C)CO)C[C@H]1C` it is > 10 µM (inactive).

As to `CCC(=O)N1[C@H](CO)[C@H]2c3ccccc3N(S(=O)(=O)c3ccc(F)cc3)C[C@H]21`, the AC50 is > 10 µM (inactive). Consider `CC(C)NC(=O)N1[C@@H](CO)[C@H](c2ccccc2)[C@@H]1CN(C)C(=O)c1cccnc1`, for which the AC50 is > 10 µM (inactive). With `O=C(NC[C@H]1N[C@H](CO)[C@@H]1c1ccc(-c2cncnc2)cc1)C1CCCCC1`, the AC50 was > 10 µM (inactive).

With `COc1ccc(NC(=O)N(C)C[C@H]2OCc3cnnn3CCCC(=O)N([C@H](C)CO)C[C@H]2C)c(OC)c1`, the AC50 was > 10 µM (inactive).

Regarding `N#Cc1cccc(-c2ccc([C@H]3[C@@H](CO)N[C@@H]3CNC(=O)C3CCC3)cc2)c1`, the AC50 is > 10 µM (inactive). Regarding `CCCNC[C@H]1[C@@H](c2ccc(C3=CCCCC3)cc2)[C@@H](CO)N1C(=O)C1CCC1`, the AC50 is > 10 µM (inactive).

With `CC(=O)N1[C@H](CO)[C@@H]2c3ccccc3N(C(=O)c3ccc(F)cc3)C[C@@H]21`, the AC50 is > 10 µM (inactive). The figure for `O=C(Cc1ccccc1)N1C[C@@H]2[C@H](c3ccccc31)[C@@H](CO)N2S(=O)(=O)c1ccccc1` is > 10 µM (inactive); for `C[C@H]1CN([C@@H](C)CO)C(=O)CCCn2nncc2CO[C@@H]1CN(C)C(=O)c1cc(-c2ccccc2)on1` it is > 10 µM (inactive); for `C[C@H]1CN([C@@H](C)CO)C(=O)CCCn2nncc2CO[C@H]1CN(C)C(=O)Nc1ccc(-c2cccs2)cc1` it is > 10 µM (inactive). With `O=C(NC[C@H]1N[C@H](CO)[C@H]1c1ccccc1)c1ccccc1F` the figure was > 10 µM (inactive); with `C[C@@H]1CN([C@H](C)CO)C(=O)CCCn2nncc2CO[C@H]1CN(C)Cc1cccc(C(F)(F)F)c1`, > 10 µM (inactive); with `CCc1csc(N2[C@H](CO)[C@H](c3ccccc3)[C@@H]2CNC)n1`, > 10 µM (inactive). The figure for `C[C@@H]1CN([C@@H](C)CO)C(=O)CCCn2cc(nn2)CO[C@@H]1CN(C)C(=O)Nc1ccc2c(c1)OCO2` is > 10 µM (inactive); for `O=S(=O)(c1ccc(F)cc1)N1C[C@@H]2[C@H](c3ccccc31)[C@@H](CO)N2Cc1ccccc1Cl` it is > 10 µM (inactive); for `COc1ccc(CN2[C@@H](CO)[C@@H]3c4ccccc4N(C(=O)NC(C)C)C[C@@H]32)cc1` it is > 10 µM (inactive). For the compound `O=C(NC[C@H]1[C@H](c2ccccc2)[C@@H](CO)N1Cc1ccccn1)C1CCCC1`, the AC50 was > 10 µM (inactive). Turning to `C/C=C/c1ccc([C@@H]2[C@@H](CO)N[C@@H]2CN(CC)C(=O)CN2CCOCC2)cc1`, the AC50 is > 10 µM (inactive). The figure for `C[C@@H]1CN([C@@H](C)CO)C(=O)CCCn2cc(nn2)CO[C@H]1CN(C)S(=O)(=O)c1cccc(C#N)c1` is > 10 µM (inactive); for `C[C@H]1CN([C@@H](C)CO)C(=O)CCCn2nncc2CO[C@@H]1CN(C)C(=O)Nc1ccc2c(c1)OCCO2` it is > 10 µM (inactive).

For `COc1ccccc1C(=O)N1C[C@@H]2[C@H](c3ccccc31)[C@@H](CO)N2C(=O)Cc1ccccc1`, the AC50 was > 10 µM (inactive). On to `C[C@H](CO)N1C[C@H](C)[C@@H](CN(C)C(=O)CCC(F)(F)F)OCc2cnnn2CCCC1=O`, for which the AC50 is > 10 µM (inactive). Turning to `CC(C)N(C[C@H]1[C@@H](c2ccccc2)[C@@H](CO)N1CC1CC1)C(=O)C1CCC1`, the AC50 is > 10 µM (inactive).

As for `C[C@H]1CN([C@@H](C)CO)C(=O)CCCn2nncc2CO[C@@H]1CN(C)C(=O)Oc1cccc2ccccc12`, the AC50 was > 10 µM (inactive). Regarding `C[C@H](CO)N1C[C@H](C)[C@@H](CN(C)Cc2cccc3c2OCCCO3)OCc2cnnn2CCCC1=O`, the AC50 is > 10 µM (inactive). With `C[C@H]1CN([C@@H](C)CO)C(=O)CCCn2nncc2CO[C@@H]1CN(C)Cc1ccccc1C(=O)O` the figure was > 10 µM (inactive); with `C[C@H]1CN([C@@H](C)CO)C(=O)CCCn2nncc2CO[C@H]1CN(C)C(=O)CCC(F)(F)F`, > 10 µM (inactive). With `COCC(=O)N1[C@@H](CO)[C@@H]2c3ccccc3NC[C@@H]21` the figure was > 10 µM (inactive). `O=C(CC(F)(F)F)N1C[C@H]2[C@@H](c3ccccc31)[C@H](CO)N2C(=O)C1CCCCC1`: the AC50 was > 10 µM (inactive).

As to `CN1C[C@H]2[C@@H](c3ccccc31)[C@H](CO)N2C(=O)C1CCOCC1`, the AC50 is > 10 µM (inactive). The figure for `COCC(=O)NC[C@@H]1[C@@H](c2ccccc2)[C@H](CO)N1C(=O)c1ccccc1` is > 10 µM (inactive); for `O=C(CC(F)(F)F)N1C[C@@H]2[C@H](c3ccccc31)[C@@H](CO)N2C(=O)c1ccncc1` it is > 10 µM (inactive); for `CC(C)N(C[C@@H]1N[C@@H](CO)[C@@H]1c1ccccc1)S(=O)(=O)c1ccccc1` it is > 10 µM (inactive). As for `O=C(NC[C@H]1[C@H](c2ccccc2)[C@@H](CO)N1C(=O)C1CCC1)NC1CCCC1`, the AC50 was > 10 µM (inactive). The figure for `O=C(NC[C@H]1[C@H](c2ccccc2)[C@H](CO)N1C(=O)C1CCC1)NC1CCCC1` is > 10 µM (inactive). Consider `C[C@H]1CN([C@@H](C)CO)C(=O)CCCn2nncc2CO[C@@H]1CN(C)S(=O)(=O)c1ccccc1C#N`, for which the AC50 is > 10 µM (inactive). With `O=C(Cc1ccccn1)N1[C@@H]2CNc3ccccc3[C@@H]2[C@@H]1CO` the figure was > 10 µM (inactive); with `O=S(=O)(c1ccc(F)cc1)N1C[C@@H]2[C@H](c3ccccc31)[C@H](CO)N2Cc1ccccc1Cl`, > 10 µM (inactive). With `CCC(=O)N1[C@@H](CO)[C@@H]2c3ccccc3N(S(=O)(=O)c3ccc(F)cc3)C[C@@H]21` the figure was > 10 µM (inactive); with `O=C(NC[C@@H]1[C@@H](c2ccccc2)[C@@H](CO)N1Cc1ccccn1)C1CCCC1`, > 10 µM (inactive). In the case of `C[C@H](CO)N1C[C@H](C)[C@@H](CN(C)C(=O)Oc2ccc3ccccc3c2)OCc2cn(nn2)CCCC1=O`, the AC50 is > 10 µM (inactive). With `COc1ccc(CN2[C@H](CO)[C@H]3c4ccccc4N(C(=O)NC(C)C)C[C@H]32)cc1`, the AC50 is > 10 µM (inactive). As for `O=C(Nc1ccccc1Cl)N1C[C@H]2[C@@H](c3ccccc31)[C@@H](CO)N2C(=O)c1cccnc1`, the AC50 is > 10 µM (inactive). The figure for `CCS(=O)(=O)N1[C@H](CO)[C@H](c2ccccc2)[C@@H]1CN(C)Cc1ccccn1` is > 10 µM (inactive); for `O=C(C1CCCCC1)N1[C@H](CO)[C@H]2c3ccccc3NC[C@H]21` it is > 10 µM (inactive). The figure for `O=C(Nc1ccc(F)cc1)N1C[C@@H]2[C@H](c3ccccc31)[C@H](CO)N2Cc1ccccc1Cl` is > 10 µM (inactive); for `O=C(Cc1ccccn1)N1[C@H](CO)[C@H]2c3ccccc3NC[C@H]21` it is > 10 µM (inactive). The figure for `C[C@H](CO)N1C[C@H](C)[C@@H](CN(C)C(=O)CCC(F)(F)F)OCc2cn(nn2)CCCC1=O` is > 10 µM (inactive).

As for `C[C@@H]1CN([C@@H](C)CO)C(=O)CCCn2cc(nn2)CO[C@H]1CN(C)S(=O)(=O)c1ccc(-n2cccn2)cc1`, the AC50 was > 10 µM (inactive). With `C[C@@H]1CN([C@@H](C)CO)C(=O)CCCn2nncc2CO[C@@H]1CN(C)C(=O)c1ccc(N2CCN(C)CC2)cc1` the figure was > 10 µM (inactive). With `CN(C[C@H]1N[C@@H](CO)[C@@H]1c1ccccc1)C(=O)c1ccccn1` the figure was > 10 µM (inactive); with `C[C@@H]1CN([C@H](C)CO)C(=O)CCCn2cc(nn2)CO[C@@H]1CN(C)C(=O)Nc1cccc2ccccc12`, > 10 µM (inactive); with `COCC(=O)N1[C@@H](CO)[C@@H]2c3ccccc3N(C(=O)Nc3ccccc3Cl)C[C@@H]21`, > 10 µM (inactive). With `O=S(=O)(c1ccc(F)cc1)N1C[C@H]2[C@@H](c3ccccc31)[C@@H](CO)N2Cc1ccccc1Cl`, the AC50 was > 10 µM (inactive).
